Test results published in PubChem BioAssay (NCI).
Several values for one entry are separate records, joined by “and”; a condition that tells them apart may be missing. Equal values may be shown once.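 Five concentrations, 48 hours, 96-well plates. GI50 is the concentration that inhibits growth by half. The concentration for full growth arrest is given as TGI.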

Test system: M14 melanoma
Experiment: inhibition of tumour cell growth, NCI panel, 48 h

Point of comparison: `O=C(CN1CCN(c2cc3c(cc2F)c(=O)c(C(=O)N/N=C/c2ccccc2O)cn3C2CC2)CC1)N/N=C\c1ccccc1O`, GI50 0.384 µM. Against it:
- CCCCCCCC(=O)SCC/C=C/[C@@H]1CC(=O)NCc2cccc(n2)C2=N[C@@](C)(CS2)C(=O)N[C@@H](C(C)C)C(=O)N1 — 3.4-fold higher, 1.32 µM
- C[C@@H](CS(C)(=O)=O)Nc1ncc2cc(Oc3ccc(F)cc3F)c(=O)n(C)c2n1 — higher, > 25 µM
- COc1cc2c(c(OC)c1O)C(=O)C(OC)C(c1ccc(O)c(O)c1)O2 (configuration not stated) — 2.5-fold lower, 0.155 µM
- Cn1ccnc1C(=O)/C=C/c1ccc(CC(=O)Nc2ccc(Br)cc2)cc1 — 6.8-fold higher, 2.63 µM
- CCOC(=O)Nc1nc2ccc(OCC)cc2s1 — 18-fold higher, 6.84 µM
- COc1ccc2c(c1)C(=O)/C(=C/c1ccc(OCC(=O)Nc3nccs3)cc1)O2 — 7.9-fold higher, 3.03 µM
- Cc1cnc(NC(=O)C(Cc2ccccc2)NC(=O)c2ccccc2)s1 (configuration not stated) — 4.6-fold higher, 1.75 µM
- CC(C)c1ccc(C(C)C(=O)N(CC2=C(C(C)c3ccccn3)c3ccccc3C2)C(C)C)cc1 (configuration not stated) — 10-fold higher, 3.93 µM
- O=[N+]([O-])c1cnc(Sc2ccncn2)s1 — 7.2-fold higher, 2.76 µM
- O=C(Nc1ccc(I)cc1)c1cc([N+](=O)[O-])ccc1O — 33-fold higher, 12.8 µM
- Cc1cc(=O)n2[nH]c(-c3ccc(C(C)(C)C)cc3)cc2n1 — 33-fold higher, 12.7 µM
- CNC(=O)c1ccccc1Nc1nc(Nc2ccc(N3CCOCC3)cc2OC)ncc1Cl — within 1.5-fold, 0.541 µM
- COc1c2ccoc2c(/C=C/C=O)c2oc(-c3ccccc3)cc(=O)c12 — 8.6-fold higher, 3.32 µM
- C=C(CNCCO)[C@@H]1CC[C@]2(CO)CC[C@]3(C)[C@H](CC[C@@H]4[C@@]5(C)CCC(N)C(C)(C)[C@@H]5CC[C@]43C)[C@@H]12 (some centres not stated) — 5.3-fold higher, 2.05 µM

Point of comparison: `Cc1cnc(NC(=O)C(Cc2ccccc2)NC(=O)c2ccccc2)s1` (configuration not stated), TGI 3.95 µM. Against it:
- CCCCCCCC(=O)SCC/C=C/[C@@H]1CC(=O)NCc2cccc(n2)C2=N[C@@](C)(CS2)C(=O)N[C@@H](C(C)C)C(=O)N1 — higher, > 33.3 µM
- C[C@@H](CS(C)(=O)=O)Nc1ncc2cc(Oc3ccc(F)cc3F)c(=O)n(C)c2n1 — higher, > 25 µM
- COc1cc2c(c(OC)c1O)C(=O)C(OC)C(c1ccc(O)c(O)c1)O2 (configuration not stated) — higher, > 100 µM
- Cn1ccnc1C(=O)/C=C/c1ccc(CC(=O)Nc2ccc(Br)cc2)cc1 — 1.5-fold higher, 6.07 µM
- CCOC(=O)Nc1nc2ccc(OCC)cc2s1 — higher, > 100 µM
- COc1ccc2c(c1)C(=O)/C(=C/c1ccc(OCC(=O)Nc3nccs3)cc1)O2 — 3.4-fold higher, 13.5 µM
- CC(C)c1ccc(C(C)C(=O)N(CC2=C(C(C)c3ccccn3)c3ccccc3C2)C(C)C)cc1 (configuration not stated) — 3.9-fold higher, 15.6 µM
- Cc1nc2c(nc1C)C(=O)c1ccccc1C2=O — 1.7-fold lower, 2.26 µM
- O[C@H]1[C@H]2c3cc4c(cc3CN3CCC(=C[C@@H]1O)[C@H]23)OCO4 — 2.1-fold higher, 8.2 µM
- O=[N+]([O-])c1cnc(Sc2ccncn2)s1 — 1.8-fold higher, 7.25 µM
- O=C(Nc1ccc(I)cc1)c1cc([N+](=O)[O-])ccc1O — 16-fold higher, 62.8 µM
- Cc1cc(=O)n2[nH]c(-c3ccc(C(C)(C)C)cc3)cc2n1 — higher, > 100 µM
- O=C(O)c1cc(C(=O)O)cc(N2C(=O)c3ccccc3C2=O)c1 — higher, > 100 µM
- CNC(=O)c1ccccc1Nc1nc(Nc2ccc(N3CCOCC3)cc2OC)ncc1Cl — higher, > 62.8 µM
- COc1c2ccoc2c(/C=C/C=O)c2oc(-c3ccccc3)cc(=O)c12 — higher, > 100 µM
- O=C(CN1CCN(c2cc3c(cc2F)c(=O)c(C(=O)N/N=C/c2ccccc2O)cn3C2CC2)CC1)N/N=C\c1ccccc1O — within 1.5-fold, 5.02 µM
- C=C(CNCCO)[C@@H]1CC[C@]2(CO)CC[C@]3(C)[C@H](CC[C@@H]4[C@@]5(C)CCC(N)C(C)(C)[C@@H]5CC[C@]43C)[C@@H]12 (some centres not stated) — within 1.5-fold, 3.97 µM

For `COC(=O)[C@@H](C)C[C@H](Cc1ccc(F)cc1)NC(=O)c1csc([C@@H](C[C@H](C(C)C)N(C)C(=O)[C@@H](NC(=O)[C@H]2CCCCN2C)C(C)C)OC(C)=O)n1`, the GI50 was 0.00119 µM and 0.00539 µM.

In the case of `COC(=O)[C@@H](C)C[C@H](Cc1ccc(F)cc1)NC(=O)c1csc([C@@H](C[C@H](C(C)C)N(C)C(=O)[C@@H](NC(=O)[C@H]2CCCCN2C)C(C)C)OC(C)=O)n1`, the TGI was 0.763 µM and 0.079 µM.

Test system: OVCAR-8 ovarian
Experiment: inhibition of tumour cell growth, NCI panel, 48 h

Point of comparison: `COc1ccc2c(c1)C(=O)/C(=C/c1ccc(OCC(=O)Nc3nccs3)cc1)O2`, GI50 17.2 µM. Against it:
- CCCCCCCC(=O)SCC/C=C/[C@@H]1CC(=O)NCc2cccc(n2)C2=N[C@@](C)(CS2)C(=O)N[C@@H](C(C)C)C(=O)N1 — 41-fold lower, 0.421 µM
- C[C@@H](CS(C)(=O)=O)Nc1ncc2cc(Oc3ccc(F)cc3F)c(=O)n(C)c2n1 — higher, > 25 µM
- COc1cc2c(c(OC)c1O)C(=O)C(OC)C(c1ccc(O)c(O)c1)O2 (configuration not stated) — 36-fold lower, 0.484 µM
- Cn1ccnc1C(=O)/C=C/c1ccc(CC(=O)Nc2ccc(Br)cc2)cc1 — 3.2-fold lower, 5.39 µM
- CCOC(=O)Nc1nc2ccc(OCC)cc2s1 — 2.8-fold higher, 47.7 µM
- Cc1cnc(NC(=O)C(Cc2ccccc2)NC(=O)c2ccccc2)s1 (configuration not stated) — 7.2-fold lower, 2.38 µM
- CC(C)c1ccc(C(C)C(=O)N(CC2=C(C(C)c3ccccn3)c3ccccc3C2)C(C)C)cc1 (configuration not stated) — 4.5-fold lower, 3.82 µM
- O=[N+]([O-])c1cnc(Sc2ccncn2)s1 — 4.4-fold lower, 3.94 µM
- O=C(Nc1ccc(I)cc1)c1cc([N+](=O)[O-])ccc1O — 2.4-fold lower, 7.21 µM
- Cc1cc(=O)n2[nH]c(-c3ccc(C(C)(C)C)cc3)cc2n1 — 1.5-fold lower, 11.2 µM
- CNC(=O)c1ccccc1Nc1nc(Nc2ccc(N3CCOCC3)cc2OC)ncc1Cl — 7.5-fold lower, 2.29 µM
- COc1c2ccoc2c(/C=C/C=O)c2oc(-c3ccccc3)cc(=O)c12 — 6-fold lower, 2.86 µM
- O=C(CN1CCN(c2cc3c(cc2F)c(=O)c(C(=O)N/N=C/c2ccccc2O)cn3C2CC2)CC1)N/N=C\c1ccccc1O — 41-fold lower, 0.417 µM
- C=C(CNCCO)[C@@H]1CC[C@]2(CO)CC[C@]3(C)[C@H](CC[C@@H]4[C@@]5(C)CCC(N)C(C)(C)[C@@H]5CC[C@]43C)[C@@H]12 (some centres not stated) — 9.5-fold lower, 1.82 µM

Point of comparison: `C=C(CNCCO)[C@@H]1CC[C@]2(CO)CC[C@]3(C)[C@H](CC[C@@H]4[C@@]5(C)CCC(N)C(C)(C)[C@@H]5CC[C@]43C)[C@@H]12` (some centres not stated), TGI 3.74 µM. Against it:
- CCCCCCCC(=O)SCC/C=C/[C@@H]1CC(=O)NCc2cccc(n2)C2=N[C@@](C)(CS2)C(=O)N[C@@H](C(C)C)C(=O)N1 — higher, > 33.3 µM
- C[C@@H](CS(C)(=O)=O)Nc1ncc2cc(Oc3ccc(F)cc3F)c(=O)n(C)c2n1 — higher, > 25 µM
- COc1cc2c(c(OC)c1O)C(=O)C(OC)C(c1ccc(O)c(O)c1)O2 (configuration not stated) — higher, > 100 µM
- Cn1ccnc1C(=O)/C=C/c1ccc(CC(=O)Nc2ccc(Br)cc2)cc1 — higher, > 16.7 µM
- CCOC(=O)Nc1nc2ccc(OCC)cc2s1 — higher, > 100 µM
- COC(=O)[C@@H](C)C[C@H](Cc1ccc(F)cc1)NC(=O)c1csc([C@@H](C[C@H](C(C)C)N(C)C(=O)[C@@H](NC(=O)[C@H]2CCCCN2C)C(C)C)OC(C)=O)n1 — higher, > 16.7 µM
- COc1ccc2c(c1)C(=O)/C(=C/c1ccc(OCC(=O)Nc3nccs3)cc1)O2 — higher, > 60.5 µM
- Cc1cnc(NC(=O)C(Cc2ccccc2)NC(=O)c2ccccc2)s1 (configuration not stated) — 2.4-fold higher, 9.16 µM
- CC(C)c1ccc(C(C)C(=O)N(CC2=C(C(C)c3ccccn3)c3ccccc3C2)C(C)C)cc1 (configuration not stated) — higher, > 100 µM
- Cc1nc2c(nc1C)C(=O)c1ccccc1C2=O — 11-fold higher, 42.9 µM
- O[C@H]1[C@H]2c3cc4c(cc3CN3CCC(=C[C@@H]1O)[C@H]23)OCO4 — 2-fold higher, 7.55 µM
- O=[N+]([O-])c1cnc(Sc2ccncn2)s1 — 3.5-fold higher, 13.1 µM
- O=C(Nc1ccc(I)cc1)c1cc([N+](=O)[O-])ccc1O — 6.9-fold higher, 25.8 µM
- Cc1cc(=O)n2[nH]c(-c3ccc(C(C)(C)C)cc3)cc2n1 — higher, > 100 µM
- O=C(O)c1cc(C(=O)O)cc(N2C(=O)c3ccccc3C2=O)c1 — higher, > 100 µM
- CNC(=O)c1ccccc1Nc1nc(Nc2ccc(N3CCOCC3)cc2OC)ncc1Cl — higher, > 100 µM
- COc1c2ccoc2c(/C=C/C=O)c2oc(-c3ccccc3)cc(=O)c12 — higher, > 100 µM
- O=C(CN1CCN(c2cc3c(cc2F)c(=O)c(C(=O)N/N=C/c2ccccc2O)cn3C2CC2)CC1)N/N=C\c1ccccc1O — higher, > 100 µM

With `COC(=O)[C@@H](C)C[C@H](Cc1ccc(F)cc1)NC(=O)c1csc([C@@H](C[C@H](C(C)C)N(C)C(=O)[C@@H](NC(=O)[C@H]2CCCCN2C)C(C)C)OC(C)=O)n1` the GI50 was 0.00256 µM and 0.0116 µM.

Test system: SF-539 CNS
Experiment: inhibition of tumour cell growth, NCI panel, 48 h

Point of comparison: `CCCCCCCC(=O)SCC/C=C/[C@@H]1CC(=O)NCc2cccc(n2)C2=N[C@@](C)(CS2)C(=O)N[C@@H](C(C)C)C(=O)N1`, GI50 2.72 µM. Against it:
- C[C@@H](CS(C)(=O)=O)Nc1ncc2cc(Oc3ccc(F)cc3F)c(=O)n(C)c2n1 — higher, > 25 µM
- COc1cc2c(c(OC)c1O)C(=O)C(OC)C(c1ccc(O)c(O)c1)O2 (configuration not stated) — 34-fold lower, 0.0798 µM
- Cn1ccnc1C(=O)/C=C/c1ccc(CC(=O)Nc2ccc(Br)cc2)cc1 — within 1.5-fold, 2.43 µM
- CCOC(=O)Nc1nc2ccc(OCC)cc2s1 — 7.4-fold higher, 20.2 µM
- COc1ccc2c(c1)C(=O)/C(=C/c1ccc(OCC(=O)Nc3nccs3)cc1)O2 — 15-fold lower, 0.184 µM
- Cc1cnc(NC(=O)C(Cc2ccccc2)NC(=O)c2ccccc2)s1 (configuration not stated) — 5.2-fold higher, 14.2 µM
- CC(C)c1ccc(C(C)C(=O)N(CC2=C(C(C)c3ccccn3)c3ccccc3C2)C(C)C)cc1 (configuration not stated) — 2.1-fold higher, 5.62 µM

Point of comparison: `COc1cc2c(c(OC)c1O)C(=O)C(OC)C(c1ccc(O)c(O)c1)O2` (configuration not stated), TGI 4.56 µM. Against it:
- CCCCCCCC(=O)SCC/C=C/[C@@H]1CC(=O)NCc2cccc(n2)C2=N[C@@](C)(CS2)C(=O)N[C@@H](C(C)C)C(=O)N1 — higher, > 33.3 µM
- C[C@@H](CS(C)(=O)=O)Nc1ncc2cc(Oc3ccc(F)cc3F)c(=O)n(C)c2n1 — higher, > 25 µM
- Cn1ccnc1C(=O)/C=C/c1ccc(CC(=O)Nc2ccc(Br)cc2)cc1 — within 1.5-fold, 4.81 µM
- CCOC(=O)Nc1nc2ccc(OCC)cc2s1 — higher, > 100 µM
- COc1ccc2c(c1)C(=O)/C(=C/c1ccc(OCC(=O)Nc3nccs3)cc1)O2 — 13-fold lower, 0.361 µM
- Cc1cnc(NC(=O)C(Cc2ccccc2)NC(=O)c2ccccc2)s1 (configuration not stated) — 6.8-fold higher, 31.1 µM
- CC(C)c1ccc(C(C)C(=O)N(CC2=C(C(C)c3ccccn3)c3ccccc3C2)C(C)C)cc1 (configuration not stated) — 5.9-fold higher, 26.7 µM

For `COC(=O)[C@@H](C)C[C@H](Cc1ccc(F)cc1)NC(=O)c1csc([C@@H](C[C@H](C(C)C)N(C)C(=O)[C@@H](NC(=O)[C@H]2CCCCN2C)C(C)C)OC(C)=O)n1`, the GI50 was 0.00153 µM and 0.00714 µM.
